Assays:
MPXV^Zr-599 (Clade I) = test: microbe, parasite or virus in culture; format: cell-based; conditions: Monkeypox virus, Vero C1008, 120 h, read-out: EC50 against MPXV^Zr-599
MPXV^Liberia (Clade IIa) = test: microbe, parasite or virus in culture; format: cell-based; conditions: Monkeypox virus, Vero C1008, 120 h, read-out: EC50 against MPXV^Liberia
MPXV^SPL2A7 (Clade IIb) = test: microbe, parasite or virus in culture; format: cell-based; conditions: Monkeypox virus, Vero C1008, 120 h, read-out: EC50 against MPXV^SPL2A7
Huh7 cells = conditions: for concentration at which the agent showed cytotoxicity, reducing the number of cells: human
HeLa cells = conditions: for concentration at which the agent showed cytotoxicity, reducing the number of cells: human
VeroE6 cells [1] = test system: VeroE6 cells
VeroE6 cells [2] = test system: VeroE6 cells; remark: listed apart in the source
in vitro [3] = conditions: human
in vitro [4] = conditions: human; remark: listed apart in the source
clade II mpox = conditions: human, in vivo; cited from earlier work
clade I mpox = conditions: human, in vivo; cited from earlier work
in vitro [5] = conditions: African green monkey

| SMILES | EC50 (MPXV^Zr-599 (Clade I)) [nM] | EC50 (MPXV^Liberia (Clade IIa)) [nM] | EC50 (MPXV^SPL2A7 (Clade IIb)) [nM] | concentration at which the agent showed cytotoxicity, reducing the number of cells (Huh7 cells) [µM] | concentration at which the agent showed cytotoxicity, reducing the number of cells (HeLa cells) [µM] | amount of F-actin (images) (VeroE6 cells [1]) | protein production (F-actin quantification), in words (VeroE6 cells [1]) | cell number on day 5 subtracted with cell number on Day 0 (VeroE6 cells [2]) | number of cells (DAPI) (VeroE6 cells [2]) | CC50 (in vitro [3]) [nM] | CC50 (in vitro [4]) [nM] | cytostaticity and/or cytotoxicity (in words) (Huh7 cells) | cytostaticity and/or cytotoxicity (in words) (HeLa cells) | concentration at which production of virally-encoded proteins was blocked (and above) (MPXV^SPL2A7) [µM] | number of the cells (nuclei stained with DAPI) (MPXV^SPL2A7) | suppression of protein production (F-actin quantification) (VeroE6 cells [1]) | clinical efficacy (clade II mpox) | duration of mpox lesions (clade I mpox) | CC50 (in vitro [5]) [nM] |
| --- | --- | --- | --- | --- | --- | --- | --- | --- | --- | --- | --- | --- | --- | --- | --- | --- | --- | --- | --- |
| CCCCCCCCCCCCCCCCOCCCOP(=O)(O)CO[C@H](CO)Cn1ccc(N)nc1=O [Brincidofovir, brincidofovir] | 2130 ± 950 | 2010 ± 850 | 2030 ± 320 | 10 to 100 | 10 to 100 | markedly reduced | virtually totally blocked | below zero |  |  |  |  |  |  |  |  |  |  |  |
| Nc1ccn([C@@H]2O[C@H](CO)[C@@H](O)C2(F)F)c(=O)n1 [Gemcitabine, gemcitabine] | 20 ± 20 | 10 ± 10 | 20 ± 20 |  |  | greatly reduced | totally blocked |  | significant reduction |  |  |  |  |  |  |  |  |  |  |
| Nc1ccn(C[C@@H](CO)OCP(=O)(O)O)c(=O)n1 [Cidofovir, cidofovir] | 17300 ± 5030 | 15200 ± 3020 | 12200 ± 1190 | 100 | 100 |  | virtually totally blocked | below zero |  | > 100000 | > 100000 |  |  |  |  |  |  |  |  |
| O=c1[nH]c(=O)n([C@H]2C[C@H](O)[C@@H](CO)O2)cc1C(F)(F)F [Trifluridine, trifluridine] | 3710 ± 1450 | 3480 ± 1820 | 6170 ± 1260 |  |  |  |  |  |  |  |  |  |  |  |  |  |  |  |  |
| O=C(NN1C(=O)[C@@H]2[C@@H]3C=C[C@@H]([C@H]4C[C@@H]34)[C@@H]2C1=O)c1ccc(C(F)(F)F)cc1 [Tecovirimat, tecovirimat] | 5 ± 1 | 4 ± 2 | 1 ± 2 |  |  |  |  |  |  | > 100000 | > 100000 | without cytostaticity and/or cytotoxicity | without cytostaticity and/or cytotoxicity | ≥ 0.01 | no significant reduction | about 50% | no significant efficacy | failed to shorten the duration of mpox lesions | > 100000 |

Reference: paper PMC12396559 (Virus Research, 2025)
